Assay results as given in paper PMC10931632, “Inhibition of Insulin-Regulated Aminopeptidase by Imidazo [1,5-α]pyridines—Synthesis and Evaluation” (International Journal of Molecular Sciences, 2024).
Converted amounts (≈) assume the structure as drawn. “Also recorded” adds a separate entry of the source.

Tests used:
[1] = Rat hepatocytes intrinsic clearance; type: in vitro ADME; conditions: for hepatocyte CLint: read-out: Rat hep. Clint; for half-life: read-out: Rat hep. t ½
Description: (§1) Pre-clinical profiling of the compounds was performed at AstraZeneca R&D in Gothenburg, Sweden, applying an integrated panel of assays referred to as the DMPK Wave 1 panel.

[2] = Dried DMSO solubility in aqueous phosphate buffer pH 7.4; type: physicochemical; conditions: thermodynamic from solid; aqueous phosphate buffer (PBS) at pH 7.4; read-out: Sol. (dried DMSO solubility)
Description: as §1

[3] = Human liver microsome intrinsic clearance; type: in vitro ADME; conditions: human liver microsomes; for microsomal CLint: read-out: HLM Clint; for half-life: read-out: HLM t ½
Description: as §1

[4] = LogD7.4 (DMPK Wave 1 panel); type: physicochemical; conditions: pH 7.4; average ± SD of three test occasions
Description: as §1

[5] = Human plasma protein binding; type: in vitro ADME; conditions: read-out: PPB
Description: as §1

Human plasma stability = type: in vitro ADME; conditions: after 18 h incubation
Description: as §1

[6] = biological target: T1, human aminopeptidase N (APN) (Homo sapiens, UniProt P15144); assay: Inhibition of human aminopeptidase N overexpressed in HEK293 cells; type: biochemical; conditions: for APN IC50 (µM)/pIC50: human aminopeptidase N overexpressed in HEK293 cells
T1 construct: expressed in transfected cells; host or cells: HEK293 / HEK293T cells, membrane preparations
T1 sequence (P15144 whole entry): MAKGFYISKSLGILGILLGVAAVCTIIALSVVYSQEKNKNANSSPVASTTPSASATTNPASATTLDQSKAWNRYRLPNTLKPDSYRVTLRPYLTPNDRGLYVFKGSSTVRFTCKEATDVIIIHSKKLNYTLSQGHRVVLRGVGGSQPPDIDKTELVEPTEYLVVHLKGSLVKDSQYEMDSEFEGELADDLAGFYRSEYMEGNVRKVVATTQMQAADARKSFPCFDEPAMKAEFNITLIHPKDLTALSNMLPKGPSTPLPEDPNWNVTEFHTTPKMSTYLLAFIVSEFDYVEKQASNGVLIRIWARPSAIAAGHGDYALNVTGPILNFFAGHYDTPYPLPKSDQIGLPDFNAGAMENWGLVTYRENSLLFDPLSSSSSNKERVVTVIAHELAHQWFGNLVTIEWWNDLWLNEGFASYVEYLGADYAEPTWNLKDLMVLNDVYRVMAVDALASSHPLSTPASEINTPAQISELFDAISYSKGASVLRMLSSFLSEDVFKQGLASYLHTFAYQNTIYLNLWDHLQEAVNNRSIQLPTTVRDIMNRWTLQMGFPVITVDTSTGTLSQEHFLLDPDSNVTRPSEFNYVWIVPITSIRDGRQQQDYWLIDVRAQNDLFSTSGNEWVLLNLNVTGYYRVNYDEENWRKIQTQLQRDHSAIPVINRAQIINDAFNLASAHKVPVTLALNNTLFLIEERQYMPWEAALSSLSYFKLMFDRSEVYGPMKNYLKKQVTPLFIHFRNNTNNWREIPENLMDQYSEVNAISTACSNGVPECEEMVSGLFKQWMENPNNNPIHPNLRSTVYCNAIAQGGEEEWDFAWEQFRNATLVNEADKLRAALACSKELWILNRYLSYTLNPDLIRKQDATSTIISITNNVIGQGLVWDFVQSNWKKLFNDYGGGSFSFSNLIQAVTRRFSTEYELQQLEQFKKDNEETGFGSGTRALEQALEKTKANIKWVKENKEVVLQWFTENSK
Description: (§2) Human IRAP and APN were overexpressed, as previously described.
(§3) Membrane preparations from frozen CHO cells and HEK293T cells with overexpressed IRAP and APN were prepared and handled as previously described.
(§4) Details for the assay used to evaluate the inhibitory activity of the compounds have already been published.

human IRAP = biological target: T2, human IRAP (Homo sapiens, UniProt Q9UIQ6); assay: Inhibition of human membrane-bound IRAP overexpressed in HEK293 cells (hIRAP); type: biochemical
T2 construct: expressed in transfected cells
T2 sequence (Q9UIQ6 whole entry): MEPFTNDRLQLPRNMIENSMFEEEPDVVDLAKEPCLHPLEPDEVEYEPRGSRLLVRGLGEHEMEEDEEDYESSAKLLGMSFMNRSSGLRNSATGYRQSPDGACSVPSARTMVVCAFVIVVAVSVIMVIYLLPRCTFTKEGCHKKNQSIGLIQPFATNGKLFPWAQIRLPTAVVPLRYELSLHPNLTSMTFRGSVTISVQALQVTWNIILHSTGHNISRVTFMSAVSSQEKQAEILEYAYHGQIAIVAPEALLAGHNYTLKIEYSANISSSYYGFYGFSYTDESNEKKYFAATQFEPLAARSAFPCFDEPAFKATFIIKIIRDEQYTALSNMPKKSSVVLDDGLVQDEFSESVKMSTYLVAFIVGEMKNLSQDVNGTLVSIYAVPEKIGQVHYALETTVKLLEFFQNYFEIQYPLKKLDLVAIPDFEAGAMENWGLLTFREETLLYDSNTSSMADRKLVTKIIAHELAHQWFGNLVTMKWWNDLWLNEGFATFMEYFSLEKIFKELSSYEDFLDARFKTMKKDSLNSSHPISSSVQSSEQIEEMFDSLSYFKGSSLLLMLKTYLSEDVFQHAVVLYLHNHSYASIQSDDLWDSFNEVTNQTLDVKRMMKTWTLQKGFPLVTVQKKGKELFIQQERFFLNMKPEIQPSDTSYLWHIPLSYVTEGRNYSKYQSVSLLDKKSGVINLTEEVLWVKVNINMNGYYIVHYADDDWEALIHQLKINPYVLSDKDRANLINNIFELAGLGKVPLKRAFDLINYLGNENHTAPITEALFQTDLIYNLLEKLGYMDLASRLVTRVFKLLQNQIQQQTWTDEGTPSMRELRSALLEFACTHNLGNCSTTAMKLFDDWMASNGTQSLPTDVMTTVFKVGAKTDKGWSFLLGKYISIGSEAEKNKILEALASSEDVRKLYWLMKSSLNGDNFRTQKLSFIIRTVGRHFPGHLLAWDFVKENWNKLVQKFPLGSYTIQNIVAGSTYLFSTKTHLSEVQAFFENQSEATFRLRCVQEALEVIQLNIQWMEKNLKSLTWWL
Description: as §2, §3, §4

IRAP [7] = test system: IRAP; parameters: method as in PMID 27078680; conditions: jump-dilution experiments; cited from earlier work
IRAP [8] = biological target: T3, IRAP (Cricetulus griseus, UniProt A0A8C2M8D5); assay: Mechanism of action enzyme kinetics with variable L-Leu-pNA substrate on IRAP from CHO cell membranes; type: biochemical, Chinese hamster; conditions: Vmax decreases, Km constant
T3 sequence (A0A8C2M8D5 1-1025): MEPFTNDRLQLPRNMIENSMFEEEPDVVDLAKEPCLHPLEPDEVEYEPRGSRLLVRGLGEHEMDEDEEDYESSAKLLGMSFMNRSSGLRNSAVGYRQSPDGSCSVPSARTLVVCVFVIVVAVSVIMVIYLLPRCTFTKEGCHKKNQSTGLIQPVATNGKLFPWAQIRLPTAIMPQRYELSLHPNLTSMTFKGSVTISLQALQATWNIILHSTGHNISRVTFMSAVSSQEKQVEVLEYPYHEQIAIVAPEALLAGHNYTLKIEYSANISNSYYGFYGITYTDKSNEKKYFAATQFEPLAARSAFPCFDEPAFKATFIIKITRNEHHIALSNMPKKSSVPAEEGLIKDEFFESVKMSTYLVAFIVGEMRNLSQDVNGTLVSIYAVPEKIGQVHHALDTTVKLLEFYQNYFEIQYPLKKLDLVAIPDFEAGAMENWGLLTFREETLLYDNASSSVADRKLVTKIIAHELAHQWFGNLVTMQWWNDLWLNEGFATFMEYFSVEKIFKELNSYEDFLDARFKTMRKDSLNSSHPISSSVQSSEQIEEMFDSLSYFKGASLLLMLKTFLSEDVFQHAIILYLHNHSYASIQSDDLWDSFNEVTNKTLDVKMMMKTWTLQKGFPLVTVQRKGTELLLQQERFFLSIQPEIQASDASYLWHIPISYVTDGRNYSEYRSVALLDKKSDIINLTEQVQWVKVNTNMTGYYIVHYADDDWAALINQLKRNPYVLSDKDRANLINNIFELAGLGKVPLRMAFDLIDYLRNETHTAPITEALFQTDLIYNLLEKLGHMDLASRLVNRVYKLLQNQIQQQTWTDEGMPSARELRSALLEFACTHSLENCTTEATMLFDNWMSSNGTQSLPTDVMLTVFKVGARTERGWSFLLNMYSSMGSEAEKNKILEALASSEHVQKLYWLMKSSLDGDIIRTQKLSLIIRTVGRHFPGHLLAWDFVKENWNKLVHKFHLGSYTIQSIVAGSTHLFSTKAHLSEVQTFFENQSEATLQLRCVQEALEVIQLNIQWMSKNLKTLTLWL
Description: The design of the enzyme kinetics experiments followed that of the inhibitory experiments, except for the substrate concentrations that were variable at 0.1, 0.2, 0.3, 0.4, 0.8, 1.6 and 2.4 mM. The serial dilution of the compound stock solution was reproduced across all eight rows of a set of four 96-well plates. Four technical replicates were obtained at each substrate concentration by adding the same substrate solution to the top or bottom four rows of each 96-well plate, i.e., a total of four plates were used for this experiment, including a no-substrate control. The absorbance of these plates was then measured every 10 min to follow the enzymatic reaction over time. Data obtained in the presence of 100 µM inhibitor were used to define maximal IRAP inhibition under these assay conditions, i.e., this slope was subtracted from those obtained at lower inhibitor concentrations. Data were fitted to a model for non-competitive inhibition within GraphPad and compared with models for competitive and uncompetitive binding. The non-competitive inhibition model explains the experimental data with a probability of 99.99%, compared to 0.01% and <0.01% for competitive and uncompetitive inhibition, respectively. […]

[9] = biological target: T4, human recombinant soluble IRAP (sIRAP) (Homo sapiens, UniProt Q9UIQ6); assay: Inhibition of human recombinant soluble IRAP (sIRAP); type: biochemical; conditions: human recombinant soluble enzyme
T4 construct: as well as the recombinant soluble enzyme (sIRAP)
T4 sequence (Q9UIQ6 155-1025 limits assumed): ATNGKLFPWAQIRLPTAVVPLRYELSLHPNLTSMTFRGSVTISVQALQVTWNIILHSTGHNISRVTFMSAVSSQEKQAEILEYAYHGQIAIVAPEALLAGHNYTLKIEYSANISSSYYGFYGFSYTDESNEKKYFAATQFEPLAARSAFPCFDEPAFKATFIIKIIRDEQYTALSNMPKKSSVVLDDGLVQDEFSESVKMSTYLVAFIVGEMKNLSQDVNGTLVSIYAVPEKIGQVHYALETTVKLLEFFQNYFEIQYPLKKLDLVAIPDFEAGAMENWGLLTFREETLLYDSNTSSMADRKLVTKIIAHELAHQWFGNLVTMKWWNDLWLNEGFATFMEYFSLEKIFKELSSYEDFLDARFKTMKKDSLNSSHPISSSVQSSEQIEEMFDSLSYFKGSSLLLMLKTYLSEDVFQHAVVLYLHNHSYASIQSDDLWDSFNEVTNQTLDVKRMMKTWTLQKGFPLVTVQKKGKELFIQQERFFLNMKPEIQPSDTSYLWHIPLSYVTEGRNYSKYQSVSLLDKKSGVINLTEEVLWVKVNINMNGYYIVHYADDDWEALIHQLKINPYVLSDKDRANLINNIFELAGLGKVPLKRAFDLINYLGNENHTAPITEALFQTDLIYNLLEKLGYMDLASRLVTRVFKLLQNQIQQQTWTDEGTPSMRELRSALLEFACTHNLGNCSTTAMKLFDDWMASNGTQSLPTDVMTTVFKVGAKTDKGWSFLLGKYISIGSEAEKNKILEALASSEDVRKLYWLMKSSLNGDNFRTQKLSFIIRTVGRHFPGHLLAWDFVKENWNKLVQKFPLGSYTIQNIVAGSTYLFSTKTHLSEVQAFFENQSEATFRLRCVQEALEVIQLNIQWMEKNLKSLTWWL
Source text: as §4

Row | Compound | hepatocyte CLint [1] [µL/min/1e6 cells] | half-life [1] [min] | solubility [2] [µM] | microsomal CLint [3] [µL/min/mg] | half-life [3] [min] | logD [4] | fraction unbound [5] | Plasma Stab (Human plasma stability) [% compound remaining] | APN IC50 (µM)/pIC50 [6] | IC50 (human IRAP) [nM] | impact on the activity of human APN ([6]; at concentrations up to 125 µM) | reversibility of binding to IRAP (IRAP [7]) | mode of inhibition versus substrate (IRAP [8]) | IC50 [9] [nM]
1 | COc1ccccc1-c1nc(CN(C)C(=O)N[C@@H](C)c2ccccc2)n2ccccc12 [Compound 6m, (S)-1-((1-(2-Methoxyphenyl)imidazo [1,5-a]pyridin-3-yl)methyl)-1-methyl-3-(1-phenylethyl)urea] | > 300 | < 2.3 | 55 ± 12 (≈ 22.8 µg/mL) | > 300 | < 2.3 | 2.9 ± 0.6 | 0.006 ± 0.001 | 99 ± 5 | – | – | – | – | – | –
2 | COc1ccccc1-c1nc(C2CCCN2C(=S)NCc2ccccc2)n2ccccc12 (stereo not drawn) [Compound 6v, N-Benzyl-2-(1-(2-methoxyphenyl)imidazo [1,5-a]pyridin-3-yl)pyrrolidine-1-carbothioamide] | > 300 | < 2.3 | 0.6 to 2 (≈ 0.266 to 0.885 µg/mL) | > 300 | < 2.3 | 3.3 ± 0.4 | 0.007 ± 0.001 | 76 ± 6 | – | – | – | – | – | –
3 | COc1ccccc1-c1nc(C2CCCN2C(=O)N[C@H](C)c2ccccc2)n2ccccc12 (mixture of isomers) [Compound 6b, 2-(1-(2-Methoxyphenyl)imidazo [1,5-a]pyridin-3-yl)-N-((R)-1-phenylethyl)pyrrolidine-1-carboxamide] | – | – | – | – | – | – | – | – | neither compound showed any inhibitory activity; also recorded: inactive (2) | 50000 | – | – | – | –
4 | COc1ccccc1-c1nc(C2CCCN2C(=O)N[C@@H](C)c2ccccc2)n2ccccc12 (mixture of isomers) [Compound 6a, 2-(1-(2-Methoxyphenyl)imidazo [1,5-a]pyridin-3-yl)-N-((S)-1-phenylethyl)pyrrolidine-1-carboxamide] | – | – | – | – | – | – | – | – | neither compound showed any inhibitory activity; also recorded: inactive (2) | 1300 | no impact | binds reversibly | non-competitive binding with the substrate | 1000
